Measurements published in ChEMBL document CHEMBL1275581, “Detection of the pandemic O25-ST131 human virulent Escherichia coli CTX-M-15-producing clone harboring the qnrB2 and aac(6')-Ib-cr genes in a dog” (2009).
≈ marks a conversion by molar mass, not a printed value.

Columns and labels:
Escherichia coli [1] = test: (§1) Antimicrobial activity against beta-lactamase CTX-M-15-producing fluoroquinolone-resistant Escherichia coli FMV5825 expressing qnrB2 and aac(6')-Ib-cr and harboring gyrA Ser83Ile and Asp87Asn mutant gene and ParC Ser80Ile and Glu84Val mutant gene obtained from dog with urinary tract infection by broth microdilution method; assay type: functional
Escherichia coli [2] = test: Antimicrobial activity against Azide-resistant Escherichia coli J53 by broth microdilution method; assay type: functional
Escherichia coli [3] = test: microbe, parasite or virus in culture; details: J53
Escherichia coli [4] = test: Antimicrobial activity against Azide-resistant Escherichia coli J53 by broth microdilution method in presence of beta-lactamase inhibitor clavulanic acid; assay type: functional
Escherichia coli [5] = test: Antimicrobial activity against Azide-resistant Escherichia coli J53 transconjugant harboring Escherichia coli DH5alpha-5825 qnrB2 gene by broth microdilution method in presence of beta-lactamase inhibitor clavulanic acid; assay type: functional
Escherichia coli [6] = test: as §1, with “method in presence of beta-lactamase inhibitor clavulanic acid” for “method”; assay type: functional; details: FMV5825, Urine
Escherichia coli [7] = test: Antimicrobial activity against Escherichia coli harboring qnr gene assessed as resistant isolate; assay type: functional
Escherichia coli [8] = test: as §1, with “method in presence of beta-lactamase inhibitor Tazobactam” for “method”; assay type: functional; details: FMV5825, Urine
Escherichia coli [9] = test: Antimicrobial activity against Azide-resistant Escherichia coli J53 transconjugant harboring Escherichia coli DH5alpha-5825 qnrB2 gene by broth microdilution method in presence of beta-lactamase inhibitor Tazobactam; assay type: functional
Escherichia coli [10] = test: Antimicrobial activity against Azide-resistant Escherichia coli J53 by broth microdilution method in presence of beta-lactamase inhibitor Tazobactam; assay type: functional

Molecule	MIC (Escherichia coli [1]; FMV5825, Urine) [µg/mL]	MIC (Escherichia coli [2]) [µg/mL]	MIC (Escherichia coli [3]) [µg/mL]	other results
C[C@@H](O)[C@H]1C(=O)N2C(C(=O)O)=C(S[C@@H]3CN[C@H](C(=O)Nc4cccc(C(=O)O)c4)C3)[C@H](C)[C@H]12	≤ 0.5	≤ 0.5	≤ 0.5	
CO/N=C(\C(=O)N[C@@H]1C(=O)N2C(C(=O)[O-])=C(C[N+]3(C)CCCC3)CS[C@H]12)c1csc(N)n1	> 16	≤ 1	> 16	
NCC[C@H](O)C(=O)N[C@@H]1C[C@H](N)[C@@H](O[C@H]2O[C@H](CN)[C@@H](O)[C@H](O)[C@H]2O)[C@H](O)[C@H]1O[C@H]1O[C@H](CO)[C@@H](O)[C@H](N)[C@H]1O [AMIKACIN]	16 (≈ 27.3 µM)	0.5 (≈ 0.854 µM)	2 (≈ 3.42 µM)	
CC1(C)S[C@@H]2[C@H](NC(=O)[C@H](N)c3ccc(O)cc3)C(=O)N2[C@H]1C(=O)O [AMOXICILLIN]				MIC (Escherichia coli [4]): 2 µg/mL; MIC (Escherichia coli [5]): 8 µg/mL; MIC (Escherichia coli [6]): 8 µg/mL
CC1(C)S[C@@H]2[C@H](NC(=O)[C@H](N)c3ccccc3)C(=O)N2[C@H]1C(=O)O [AMPICILLIN]	> 16	≤ 4	> 16	
C[C@H]1[C@H](NC(=O)/C(=N\OC(C)(C)C(=O)O)c2csc(N)n2)C(=O)N1S(=O)(=O)O [AZTREONAM]	> 16	≤ 1	> 16	
Cc1nnc(SCC2=C(C(=O)O)N3C(=O)[C@@H](NC(=O)Cn4cnnn4)[C@H]3SC2)s1 [CEFAZOLIN]	> 16	≤ 16	> 16	
CO/N=C(\C(=O)N[C@@H]1C(=O)N2C(C(=O)O)=C(COC(C)=O)CS[C@H]12)c1csc(N)n1 [CEFOTAXIME]	> 64	≤ 1	> 64	MIC (Escherichia coli [4]): ≤ 0.25 µg/mL; MIC (Escherichia coli [5]): ≤ 0.25 µg/mL; MIC (Escherichia coli [6]): ≤ 0.25 µg/mL
CO[C@@]1(NC(=O)C2SC(=C(C(N)=O)C(=O)O)S2)C(=O)N2C(C(=O)O)=C(CSc3nnnn3C)CS[C@@H]21 (some centres not stated) [CEFOTETAN]	≤ 16	≤ 16	≤ 16	
CO[C@@]1(NC(=O)Cc2cccs2)C(=O)N2C(C(=O)O)=C(COC(N)=O)CS[C@@H]21 [CEFOXITIN]	≤ 4	≤ 4	≤ 4	
COCC1=C(C(=O)O)N2C(=O)[C@@H](NC(=O)/C(=N\OC)c3csc(N)n3)[C@H]2SC1 [CEFPODOXIME]	> 4	≤ 1	> 4	
CC(C)(O/N=C(\C(=O)N[C@@H]1C(=O)N2C(C(=O)[O-])=C(C[n+]3ccccc3)CS[C@H]12)c1csc(N)n1)C(=O)O [CEFTAZIDIME]	128 (≈ 234 µM)	≤ 1	64 (≈ 117 µM)	MIC (Escherichia coli [4]): ≤ 0.25 µg/mL; MIC (Escherichia coli [5]): ≤ 0.25 µg/mL; MIC (Escherichia coli [6]): ≤ 0.25 µg/mL
CO/N=C(\C(=O)N[C@@H]1C(=O)N2C(C(=O)O)=C(COC(N)=O)CS[C@H]12)c1ccco1 [CEFUROXIME]	> 16	1 (≈ 2.36 µM)	> 16	
O=C(O)c1cn(C2CC2)c2cc(N3CCNCC3)c(F)cc2c1=O [CIPROFLOXACIN]	128 (≈ 386 µM)			Activity (Escherichia coli [7]): 26%
C[C@@H](O)[C@H]1C(=O)N2C(C(=O)O)=C(SCCNC=N)C[C@H]12 [IMIPENEM ANHYDROUS]	≤ 1	≤ 1	≤ 1	
C[C@H]1COc2c(N3CCN(C)CC3)c(F)cc3c(=O)c(C(=O)O)cn1c23.C[C@H]1COc2c(N3CCN(C)CC3)c(F)cc3c(=O)c(C(=O)O)cn1c23.O [LEVOFLOXACIN]	32	0.031	0.031	
C[C@@H](O)[C@H]1C(=O)N2C(C(=O)O)=C(S[C@@H]3CN[C@H](C(=O)N(C)C)C3)[C@H](C)[C@H]12 [MEROPENEM]	≤ 2	≤ 2	≤ 2	
CCn1cc(C(=O)O)c(=O)c2ccc(C)nc21 [NALIDIXIC ACID]	> 256	4 (≈ 17.2 µM)	16 (≈ 68.9 µM)	Activity (Escherichia coli [7]): 34%
CCn1cc(C(=O)O)c(=O)c2cc(F)c(N3CCNCC3)cc21 [NORFLOXACIN]	256 (≈ 802 µM)	0.062 (≈ 0.194 µM)	0.5 (≈ 1.57 µM)	
CCN1CCN(C(=O)N[C@@H](C(=O)N[C@@H]2C(=O)N3[C@@H]2SC(C)(C)[C@@H]3C(=O)O)c2ccccc2)C(=O)C1=O [PIPERACILLIN]	> 64	≤ 8	> 64	MIC (Escherichia coli [8]): ≤ 8 µg/mL; MIC (Escherichia coli [9]): ≤ 8 µg/mL; MIC (Escherichia coli [10]): ≤ 8 µg/mL
CC1(C)S[C@@H]2[C@H](NC(=O)[C@H](C(=O)O)c3ccsc3)C(=O)N2[C@H]1C(=O)O [TICARCILLIN]	> 64	≤ 16	> 64	
NC[C@H]1O[C@H](O[C@H]2[C@H](O)[C@@H](O[C@H]3O[C@H](CO)[C@@H](O)[C@H](N)[C@H]3O)[C@H](N)C[C@@H]2N)[C@H](N)C[C@@H]1O [TOBRAMYCIN]	> 8	≤ 2	> 8	
GENTAMICIN		0.25		MIC (Escherichia coli [1]; Urine): 32 µg/mL
